Literature values as cited in patent US10406122B2 (priority 2011, dated 2019).

Tests used:
[1] = test system: patients undergoing abdominal surgery; conditions: within the first 90 minutes of treatment; cited from earlier work
[2] = test system: postoperative pain; conditions: after 4 to 6 hours, IV or IM intermittent injection; cited from earlier work
[3] = test system: experienced opioid abusers; conditions: cited from earlier work
[4] = tramadol […] [100 mg] p.o., single dose; cited from earlier work

| Compound | responder rate (no or slight pain) [1] [%] | reduction of pain intensity [2] [%] | ratings of feel drug effect compared to placebo ([3]; IV over 5 minutes) | ratings of liking / ARCI-MBG scale ([3]; tramadol 100 and 200 mg IV, morphine 10 and 20 mg IV, over 5 minutes) | AUC [4] [ng·h/mL] | Cmax [4] [ng/mL] | Tmax [4] [h] | t1/2 [4] [h] |
| --- | --- | --- | --- | --- | --- | --- | --- | --- |
| CN1CC[C@]23c4c5ccc(O)c4O[C@H]2[C@@H](O)C=C[C@H]3[C@H]1C5 [morphine] | 81.2 | 69.8 | significantly increased ratings | significantly increased ratings |  |  |  |  |
| (+)-O-desmethyltramadol [(+)-M1] |  |  |  |  | 1258 ± 410 | 147 ± 39 | 1.6 ± 0.5 | 6.0 ± 1.0 |
